Test results: patent US7141591B2, “1,2,4-oxadiazole derivatives as hPPAR alpha agonists” (SmithKline Beecham Corporation, priority 2000, dated 2006)

Columns and labels:
human PPAR alpha = target: T1, human PPAR alpha (Homo sapiens, UniProt Q07869); assay: Transient transfection (transactivation) assay in CV-1 cells, hPPAR alpha; assay type: cell-based; conditions: PPAR transactivation activity, GAL4 chimera, concentration giving 50% of maximum activity, read-out: human αEC50
T1 construct: expressed in transfected cells; host or cells: CV-1 cells
T1 sequence (Q07869 239-466 limits assumed): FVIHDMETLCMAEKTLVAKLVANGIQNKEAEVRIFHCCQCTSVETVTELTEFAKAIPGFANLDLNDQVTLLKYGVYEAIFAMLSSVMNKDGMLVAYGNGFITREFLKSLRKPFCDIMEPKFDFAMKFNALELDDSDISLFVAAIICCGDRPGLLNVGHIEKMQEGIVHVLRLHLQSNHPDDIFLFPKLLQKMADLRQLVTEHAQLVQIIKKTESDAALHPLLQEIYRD
Excerpt: (§1) Compounds were screened for functional potency in transient transfection assays in CV-1 cells for their ability to activate the PPAR subtypes (transactivation assay). A previously established chimeric receptor system was utilized to allow comparison of the relative transcriptional activity of the receptor subtypes on the same target gene and to prevent endogenous receptor activation from complicating the interpretation of results. See, for example, Lehmann, J. M.; Moore, L. B.; Smith-Oliver, T. A.; Wilkison, W. O.; Willson, T. M.; Kliewer, S. A., An antidiabetic thiazolidinedione is a high affinity ligand for peroxisome proliferator-activated receptor γ (PPARγ), J. Biol. Chem., 1995, 270, 12953–6. The ligand binding domains for murine and human PPAR alpha, PPAR gamma, and PPAR delta were each fused to the yeast transcription factor GAL4 DNA binding domain. CV-1 cells were transiently transfected with expression vectors for the respective PPAR chimera along with a reporter construct containing five copies of the GAL4 DNA binding site driving expression of secreted placental alkaline phosphatase (SPAP) and β-galactosidase. After 16 h, the medium was exchanged to DME medium supplemented with 10% delipidated fetal calf serum and the test compound at the appropriate concentration. After an additional 24 h, cell extracts were prepared and assayed for alkaline phosphatase and β-galactosidase activity. Alkaline phosphatase activity was corrected for transfection efficiency using the β-galactosidase activity as an internal standard (see, for example, Kliewer, S. A., et. al. Cell 83, 813–819 (1995)). Rosiglitazone (BRL 49653) was used as a positive control in the hPPAR gamma assay. The positive control in the hPPAR alpha assays was 2-methyl-2-[4-{[(4-methyl-2-[4-trifluoromethylphenyl]-thiazol-5-yl-carbonyl)amino]methyl}-phenoxy]propionic acid. The positive control for PPAR delta assays was 2-{2-methyl-4-[({4-methyl-2-{trifluoromethyl)phenyl]-1,3-thiazol-5-yl}methyl)sulfanyl]phenoxy}acetic acid.

human PPAR gamma = target: T2, human PPAR gamma (Homo sapiens, UniProt P37231); assay: Transient transfection (transactivation) assay in CV-1 cells, hPPAR gamma; assay type: cell-based; conditions: PPAR transactivation activity, GAL4 chimera, concentration giving 50% of maximum activity, read-out: human γEC50
T2 construct: expressed in transfected cells; host or cells: CV-1 cells
T2 sequence (P37231 238-503 limits assumed): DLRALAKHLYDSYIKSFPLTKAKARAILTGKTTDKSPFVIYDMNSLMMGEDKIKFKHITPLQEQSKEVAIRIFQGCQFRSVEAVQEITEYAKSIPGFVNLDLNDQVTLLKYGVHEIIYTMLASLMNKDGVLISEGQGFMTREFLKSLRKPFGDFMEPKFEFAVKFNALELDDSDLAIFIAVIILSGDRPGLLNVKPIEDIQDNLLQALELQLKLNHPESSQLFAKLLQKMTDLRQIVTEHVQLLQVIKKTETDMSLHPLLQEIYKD
Excerpt: as §1

human PPAR delta = target: T3, human PPAR delta (Homo sapiens, UniProt Q03181); assay: Transient transfection (transactivation) assay in CV-1 cells, hPPAR delta; assay type: cell-based; conditions: PPAR transactivation activity, GAL4 chimera, concentration giving 50% of maximum activity, read-out: human δEC50
T3 construct: expressed in transfected cells; host or cells: CV-1 cells
T3 sequence (Q03181 211-439 limits assumed): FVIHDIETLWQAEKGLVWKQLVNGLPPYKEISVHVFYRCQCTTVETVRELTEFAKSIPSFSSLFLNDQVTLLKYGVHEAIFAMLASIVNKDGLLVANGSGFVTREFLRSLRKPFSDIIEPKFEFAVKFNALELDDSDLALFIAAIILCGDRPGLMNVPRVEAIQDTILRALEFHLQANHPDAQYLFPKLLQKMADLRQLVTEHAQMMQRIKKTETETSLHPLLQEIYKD
Excerpt: as §1

| EC50 (human PPAR alpha) [nM] | EC50 (human PPAR gamma) [nM] | melting point [°C] | EC50 (human PPAR delta) [nM] | SMILES |
| --- | --- | --- | --- | --- |
| 98 | 10000 | 164 | 4510 | CC(C)(Oc1ccc(OCc2nc(-c3ccc(C(F)(F)F)cc3)no2)cc1)C(=O)O [Example 15, 2-methyl-2-{4-[3-(4-trifluoromethyl-phenyl)-[1,2,4]oxadiazol-5-ylmethoxy]-phenoxy}-propionic acid] |
| 29 | 10000 | – | 8400 | CC(C)c1ccc(-c2nc(COc3ccc(OC(C)(C)C(=O)O)cc3)no2)cc1 [Example 16, 2-methyl-2-{4-[5-(4-isopropyl-phenyl)-[1,2,4]oxadiazol-3-ylmethoxy]-phenoxy}propionic acid] |
| 40 | 10000 | – | – | CC(C)(Oc1ccc(OCc2noc(-c3ccc(C(C)(C)C)cc3)n2)cc1)C(=O)O [Example 17, 2-methyl-2-{4-[5-(4-tert-butyl-phenyl)-[1,2,4]oxadiazol-3-ylmethoxy]-phenoxy}propionic acid] |

The next lines start with the compound.

| SMILES | EC50 (human PPAR alpha) [nM] | EC50 (human PPAR gamma) [nM] | melting point [°C] | EC50 (human PPAR delta) [nM] |
| --- | --- | --- | --- | --- |
| Cc1cc(OCc2nc(-c3ccc(C(C)(C)C)cc3)no2)ccc1OC(C)(C)C(=O)O [Example 10, 2-methyl-2-[4-(3-(4-tert-butyl-phenyl)-[1,2,4]oxadiazol-5-ylmethoxy]-2-methyl-phenoxy]-propionic acid] | 24 | 11400 | 155 to 157 | – |
| Cc1cc(OCc2nc(-c3ccc(C(C)C)cc3)no2)ccc1OC(C)(C)C(=O)O [Example 11] | 59 | 10000 | 138 | 9310 |
| Cc1cc(OCc2nc(-c3ccc(C(F)(F)F)cc3)no2)ccc1OC(C)(C)C(=O)O [Example 12, 2-methyl-2-{4-[3-(4-trifluoromethyl-phenyl)-[1,2,4]oxadiazol-5-ylmethoxy]-2-methyl-phenoxy}-propionic acid] | 36 | 4300 | 170 | 311 |
| CC(C)(Oc1ccc(OCc2nc(-c3ccc(C(C)(C)C)cc3)no2)cc1)C(=O)O [Example 13, 2-methyl-2-[4-(3-(4-tert-butyl-phenyl)-[1,2,4]oxadiazol-5-ylmethoxy]-phenoxy]-propionic acid] | 92 | 850 | 138 to 140 | – |
| CC(C)c1ccc(-c2noc(COc3ccc(OC(C)(C)C(=O)O)cc3)n2)cc1 [Example 14] | 77 | 10000 | 117 | – |
